Consider ten compounds from patent US20240109881A1, “Heteroaryl Compounds as Ligand Directed Degraders of IRAK4” (Bristol-Myers Squibb Company, priority 2022, published 2024).

pEC50: −log10 of the molar value. Where a name gives a salt, the structure may show the parent alone. Read-outs that look alike come from different tables or passages of the source.

Series [1] addresses T1, IRAK4 (Homo sapiens, UniProt Q9NWZ3).
T1 construct: endogenous in cells; host or cells: THP-1 cells
T1 sequence (Q9NWZ3 1-460): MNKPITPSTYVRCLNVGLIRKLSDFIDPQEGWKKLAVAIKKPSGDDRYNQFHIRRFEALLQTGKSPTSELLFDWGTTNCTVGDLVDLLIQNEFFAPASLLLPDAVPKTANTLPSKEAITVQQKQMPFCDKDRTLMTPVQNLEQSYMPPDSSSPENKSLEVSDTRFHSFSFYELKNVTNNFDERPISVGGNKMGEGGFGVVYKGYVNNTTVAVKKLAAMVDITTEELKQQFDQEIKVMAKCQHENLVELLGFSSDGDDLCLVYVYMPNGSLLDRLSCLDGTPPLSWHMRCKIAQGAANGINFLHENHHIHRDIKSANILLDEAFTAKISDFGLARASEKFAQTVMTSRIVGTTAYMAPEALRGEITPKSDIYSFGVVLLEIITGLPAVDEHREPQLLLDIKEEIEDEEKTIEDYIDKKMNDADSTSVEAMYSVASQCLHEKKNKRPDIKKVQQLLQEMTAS
Put plainly: LVL THP1 HTRF (THP1 Homogeneous Time Resolved Fluorescence). The series is classed as cell-based. As to conditions: THP1 cells, 18 h incubation with compound; for DC50: read-out: LVL THP1 HTRF EC50. The procedure, abridged: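 THP-1 cells in phenol red-free RPMI with 10% FBS were dosed with compound (20 nL in DMSO) for 18 h at 37° C. After 2 h lysis, IRAK4 was detected with anti-IRAK4-d2/anti-IRAK4-K HTRF antibodies for 18 h at room temperature and read at 665/615 nm; a parallel CTG plate was run.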
In general terms: In TR-FRET formats the signal depends on donor and acceptor labels being close together.

Series [2] can be described thus: Pharmacokinetic studies in mice (plasma PK, IV and PO). Format: in vivo. The settings on record: female C57B16 mice; for clearance: read-out: Clp; for Vd: read-out: VSS; for FPO: PO 3.0 mg/kg vs IV 0.50 mg/kg, dose-normalized AUCLAST. How it is done:
Due to the higher molecular weight and lipophilicity, targeted protein degraders generally occupy a physiochemical property space that is beyond Lipinski's rule of 5 and as consequence are expected to have poor oral bioavailability and overall pharmacokinetic properties. […] The plasma pharmacokinetics (PK) of P-394, P-155, P-139, and P-160 were characterized in female C57B16 mice following intravenous (IV; 0.5 mg/kg) administration. Plasma from the tail vein was withdrawn in composite fashion: one group of mice (n=3) provided samples at 2 min, 30 min, 2 h, and 8 h, while another group (n=3) provided samples at 15 min, 1 h, 4 h, and 24 h. The concentrations of test article in these samples were measured using reverse-phase LC-MS-MS and then plotted as a function of time. The resulting concentration-time data was processed using noncompartmental analysis for the calculation of clearance (Cl), volume of distribution at steady state (Vss), half-life, mean residence time (MRT) and area under the time curve (AUC).
Similarly, the PK was characterized following oral (PO; 3 mg/kg) administration. Again, plasma from the tail vein was withdrawn in composite fashion: one group of mice (n=3) provided samples at 15 min, 1 h, 4 h, and 8 h, while another group (n=3) provided samples at […], 2 h, and 24 h. Oral bioavailability (FPO) was calculated by comparing the results of the studies described, dividing the dose-normalized AUCLAST,PO by the dose-normalized AUCLAST,IV.

The target in series [3] is T1, IRAK4. The series can be described thus: ALE THP1 HTRF (Advanced Lipoxidation End Product THP1 Homogeneous Time Resolved Fluorescence). The series is classed as cell-based. The settings on record: THP1 cells. An outline of the steps:
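Cells lysed 45 min at room temperature; lysates normalized to total protein by BCA. Total IRAK4 detected by HTRF sandwich (anti-IRAK4-d2 plus anti-IRAK4-cryptate), incubated overnight in the dark at room temperature, read on a time-resolved fluorescence plate reader.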

[4] abbreviates: mouse, 0.5 mg/kg, plasma, IV 0.50 mg/kg.
[5] abbreviates: mouse, 0.5 mg/kg, IV 0.50 mg/kg, plasma.

As for `CC[C@@H]1CN(CC[C@H]2CC[C@H](c3cn(-c4cnc(-n5ncc6cc(C#N)cnc65)cc4N[C@H](C)C#N)nn3)CC2)CCN1c1ccc(N2CCC(=O)NC2=O)cn1` [P-394, 1-(4-(((R)-1-cyanoethyl)amino)-5-(4-((1R,4R)-4-(2-((R)-4-(5-(2,4-dioxotetrahydropyrimidin-1(2H)-yl)pyridin-2-yl)-3-ethylpiperazin-1-yl)ethyl)cyclohexyl)-1H-1,2,3-triazol-1-yl)pyridin-2-yl)-1H-pyrazolo[3,4-b]pyridine-5-carbonitrile], on IRAK4 [1], the “LVL THP1 HTRF YMIN” value turned out to be 1.4% and the DC50 was found to be 6 nM. For the same compound, in series [2] (setting [4]), the AUC(0-t) amounted to 0.884 µM·h, the MRT turned out to be 2.2 h, the half-life is 1.7 h and the clearance is 11.8 mL/min/kg. Moreover, the Vd in series [2] (setting [4]) stood at 1.58 L/kg. Further, the bioavailability in series [2] (mouse, plasma, PO 3.00 mg/kg vs IV 0.50 mg/kg, dose-normalized AUCLAST ratio, read-out: FPO (oral bioavailability)) was 26.6%. For the same compound, in series [2] (mouse, plasma, PO 3.00 mg/kg), the AUC(0-t) stood at 1.41 µM·h, the Cmax is 559 nM and the Tmax amounted to 0.25 h.

Consider `C[C@H](C#N)Nc1cc(-n2ncc3cc(C#N)c(N)nc32)ncc1-n1cc([C@H]2CC[C@H](CCN3CCN(c4ccc(C5CCC(=O)NC5=O)cc4)CC3)CC2)nn1` (stereo partly drawn) [P-160, 6-amino-1-(4-(((R)-1-cyanoethyl)amino)-5-(4-((1r,4R)-4-(2-(4-(4-(2,6-dioxopiperidin-3-yl)phenyl)piperazin-1-yl)ethyl)cyclohexyl)-1H-1,2,3-triazol-1-yl)pyridin-2-yl)-1H-pyrazolo[3,4-b]pyridine-5-carbonitrile, TFA], for which, on IRAK4 [1], the “LVL THP1 HTRF YMIN” value turned out to be 0.7% and the DC50 stood at 4 nM. In addition, in series [2], the FPO stood at 31.6%. Besides, in series [2] (setting [5]), the AUC(0-t) was 0.739 µM·h, the MRT is 3.8 h, the half-life is 3.2 h and the clearance came to 14.9 mL/min/kg. For the same compound, the Vd in series [2] (setting [5]) worked out at 3.37 L/kg. Besides, in series [2] (mouse, PO 3.0 mg/kg, plasma), the AUC(0-t) came out at 1.4 µM·h, the Cmax was determined as 245 nM and the time of peak concentration (Tmax) was determined as 2 h. In addition, at IRAK4 [3], the “ALE THP1 HTRF YMIN” value was determined as 5.8% and the pEC50 was 8.40.

`C[C@H](C#N)Nc1cc(-n2ncc3cc(C#N)cnc32)ncc1-n1cc([C@H]2CC[C@H](CCN3CCN(c4ccc(C5CCC(=O)NC5=O)cc4)CC3)CC2)nn1` (stereo partly drawn) [P-139, 1-(4-(((R)-1-cyanoethyl)amino)-5-(4-((1r,4R)-4-(2-(4-(4-(2,6-dioxopiperidin-3-yl)phenyl)piperazin-1-yl)ethyl)cyclohexyl)-1H-1,2,3-triazol-1-yl)pyridin-2-yl)-1H-pyrazolo[3,4-b]pyridine-5-carbonitrile, formic acid salt]: on IRAK4 [1], the “LVL THP1 HTRF YMIN” value turned out to be 1.7% and the DC50 amounted to 11 nM. Further, the FPO in series [2] is listed as 39%. In addition, in series [2] (setting [5]), the AUC(0-t) amounted to 1.06 µM·h, the MRT is 4.59 h, the half-life was 2.98 h and the clearance was 10.6 mL/min/kg. For the same compound, the Vd in series [2] (setting [5]) worked out at 2.91 L/kg. In addition, in series [2] (mouse, PO 3.0 mg/kg, plasma), the area under the curve AUC(0-t) amounted to 2.47 µM·h, the Cmax worked out at 380 nM and the time to peak (Tmax) stood at 2 h. At IRAK4 [3], the “ALE THP1 HTRF YMIN” value worked out at 5.6% and the pEC50 was 9.00.

For `C[C@H](C#N)Nc1cc(-n2ncc3cc(C#N)cnc32)ncc1-n1cc(C2CCC(CCN3CCN(c4ccc(C5CCC(=O)NC5=O)cc4)[C@H](C)C3)CC2)nn1` (some centres unmarked) [P-155], on IRAK4 [1], the “LVL THP1 HTRF YMIN” value was 0.9% and the DC50 came out at 6 nM. In addition, the FPO in series [2] is on record as ~100%. Besides, in series [2] (setting [5]), the AUC(0-t) turned out to be 2.01 µM·h, the MRT was 3.3 h, the half-life is 4.1 h and the clearance was 5.45 mL/min/kg. Besides, in series [2] (setting [5]), the Vd was 1.08 L/kg. Further, in series [2] (mouse, PO 3.0 mg/kg, plasma), the AUC(0-t) turned out to be 13.7 µM·h, the concentration peaked (Cmax) at 3010 nM and the Tmax stood at 2 h. On IRAK4 [3], the “ALE THP1 HTRF YMIN” value was 10.2% and the pEC50 is 8.70.

As to `COc1cc(N2CCN(CC[C@H]3CC[C@H](NC(=O)c4cnc(-n5ncc6cc(C#N)c(N)nc65)cc4N[C@H](C)C#N)CC3)C[C@H]2C)ccc1C1CCC(=O)NC1=O` (some centres unmarked) [P-161], on IRAK4 [1], the “LVL THP1 HTRF YMIN” value is reported as <0.5% and the DC50 amounted to 12 nM. Also, on IRAK4 [3], the “ALE THP1 HTRF YMIN” value is recorded as 6.6% and the pEC50 is 8.22.

As to `C[C@H](C#N)Nc1cc(-n2ncc3cc(C#N)cnc32)ncc1C(=O)N[C@H]1CC[C@H](CCN2CCN(c3ccc(C4CCC(=O)NC4=O)cc3)[C@H](C)C2)CC1` (some centres unmarked) [P-150], on IRAK4 [1], the “LVL THP1 HTRF YMIN” value is <0.5% and the DC50 worked out at 25 nM. Also, at IRAK4 [3], the “ALE THP1 HTRF YMIN” value is recorded as 6.2% and the pEC50 was 8.15.

`C[C@H](C#N)Nc1cc(-n2ncc3cc(C#N)cnc32)ncc1C(=O)N[C@H]1CC[C@H](CCN2CC3CCC(C2)N3c2ccc(C3CCC(=O)NC3=O)cc2)CC1` (some centres unmarked) [P-164]: at IRAK4 [1], the “LVL THP1 HTRF YMIN” value was 16.8% and the DC50 is > 5000 nM. Besides, on IRAK4 [3], the “ALE THP1 HTRF YMIN” value is listed as 64.0% and the pEC50 is 6.87.

With `C[C@H](C#N)Nc1cc(-n2ncc3cc(C#N)c(N)nc32)ncc1C(=O)N[C@H]1CC[C@H](CCN2CCN(c3ccc(C4CCC(=O)NC4=O)cn3)[C@H](C)C2)CC1` (some centres unmarked) [P-166], on IRAK4 [1], the “LVL THP1 HTRF YMIN” value is <0.5% and the DC50 amounted to 21 nM. Moreover, at IRAK4 [3], the “ALE THP1 HTRF YMIN” value worked out at 8.1% and the pEC50 is 8.10.

Consider `C[C@H](C#N)Nc1cc(-n2ncc3cc(C#N)c(N)nc32)ncc1C(=O)N[C@H]1CC[C@H](CCN2CCN(c3ccc(C4CCC(=O)NC4=O)cc3F)[C@H](C)C2)CC1` (some centres unmarked) [P-165], for which, on IRAK4 [1], the “LVL THP1 HTRF YMIN” value is given as <0.5% and the DC50 stood at 6 nM. In addition, on IRAK4 [3], the “ALE THP1 HTRF YMIN” value was found to be 5.4% and the pEC50 is 8.70.

As for `CS(=O)(=O)N1CCC(Nc2cc(-n3ncc4cc(C#N)cnc43)ncc2-n2cc([C@H]3CC[C@H](CCN4CCN(c5ccc(C6CCC(=O)NC6=O)cc5)CC4)CC3)nn2)CC1` (some centres unmarked) [P-174], at IRAK4 [1], the “LVL THP1 HTRF YMIN” value amounted to 2.7% and the DC50 was found to be 14 nM. Also, at IRAK4 [3], the “ALE THP1 HTRF YMIN” value is listed as 31.2% and the pEC50 was 6.70.

In general, AUC(0-t) refers to exposure summed from dosing to a finite time, without extrapolation to infinity. Low readings indicate low exposure, high ones high exposure. A word on the MRT: it is a mean duration of stay, worked out from the concentration-time curve. As a reminder, the half-life is the time needed for the level to fall by half in the phase considered. Low values mean rapid decline, high ones slow decline. The term bioavailability denotes dose-corrected exposure relative to a reference, in per cent. The Cmax is the highest concentration seen after dosing. One may read the Tmax as the time from dosing to the highest level. What is called pEC50 is −log10 of the EC50, conventionally taken in molar units.
